Results taken from patent US20050053912A1, “Methods for inducing reversible stasis” (priority 2001, published 2005).

Assays:
zebrafish embryos [1] = test: Viability of zebrafish embryos treated with compound, in anoxia versus normoxia; type: in vivo; settings: approx. 8 hpf embryos
Source text: Oxygen Deprivation Environments. For all studies an anaerobic bio-bag type A environmental chamber was used according to manufacturer's instructions (Becton Dickinson). This method contains a resazurin indicator that allows one to determine when the anoxic environment is established. A second method was used to verify suspended animation results. This method involved use of a chamber perfused with 100% N2 gas (Airgas Inc.) and monitored for oxygen using a FYRITE O2 Gas Analyzer (Bacharach, Pittsburgh, Pa.) and Resazurin Indicator (Becton Dickinson). By using these anoxia-producing methods, it took approximately two hours for the oxygen concentration to reach zero. Development of embryos could continue for another 1-2.5 hours, depending on the amount of water present.
This example describes the identification of a compound that causes fish embryos subjected to an anoxic/hypoxic environment to die. In this example, fish were maintained at 28° C. in fish water or embryo media (Westerfield, 1995). Briefly, zebrafish embryos at approximately 8 hpf were pre-treated with Pronase to remove the chorion. Approximately 10 pre-treated fish were placed in each 30 mm petrie dishes in either fish water or embryo media. […] After 24 hours in anoxia, the embryos were returned to room air and viability was assessed visually. […]

zebrafish embryos [2] = test: Induction of and exit from stasis in zebrafish embryos under normoxic conditions; type: in vivo
Method: This example describes the identification of a compound that causes fish embryos to enter stasis. In this example, fish were maintained at 28° C. in fish water or embryo media. Briefly, zebrafish embryos at approximately 8 hpf were pre-treated with Pronase to remove the chorion. Approximately 10 pre-treated fish were placed in 30 mm petrie dishes in either fish water or embryo media. Dilutions of Rotenone (Sigma, St. Louis, Mo.) were added to the pre-treated fish in concentrations from approximately 10 μg/ml reduced in half-logs concentrations down to approximately 10 ng/ml. The embryos were exposed to the compound for approximately 12 hours at 28° C. under normoxic conditions. As a control, pre-treated embryos were incubated in normoxic conditions at 28° C. for the same period of time. After incubation with the compound, the embryos were assessed visually for entry into stasis. […] The Rotenone-treated embryos were removed into fresh medium and incubated at 28° C. under normoxic conditions for 24 hours. The embryos were then assessed visually for the ability to exit stasis.

Row | Compound | viability assessed visually after anoxia (zebrafish embryos [1]; 500 nM, approx. 2 h pre-exposure, 24 hours anoxia at 28° C., then returned to room air) | viability, treated embryos not placed in anoxia (zebrafish embryos [1]; normoxic conditions at 28° C. for 24 hours (control)) | entry into stasis assessed visually (zebrafish embryos [2]; 0.1 μg/ml, approx. 8 hpf embryos, approx. 12 hours at 28° C. under normoxic conditions) | ability to exit stasis assessed visually (zebrafish embryos [2]; embryos removed into fresh medium, 28° C., normoxic conditions for 24 hours)
1 | 1H, 5H, 11H, 15H-Xantheno[2,3,4-ij:5,6,7-i′j′]diquinolizin-18-ium, 9-[4-(chloromethyl)phenyl]-2,3,6,7,12,13,16,17-octahydro-, chloride [M[…]] | not viable | viable | – | –
2 | C=C(C)[C@H]1Cc2c(ccc3c2O[C@@H]2COc4cc(OC)c(OC)cc4[C@@H]2C3=O)O1 [Rotenone] | – | – | enter stasis | reversible stasis inducer
